In ChEMBL document CHEMBL3997785, “Optimization of 2-Anilino 4-Amino Substituted Quinazolines into Potent Antimalarial Agents with Oral in Vivo Activity” (J Med Chem, 2017):
Converted amounts (≈) assume the structure as drawn.

Legend:
Plasmodium falciparum [1] = test: Antimalarial activity against Plasmodium falciparum 3D7 asexual blood stage infected in human erythrocytes incubated for 72 hrs by LDH assay; type: functional, cell-based; details: 3D7, 72 h
HepG2 = test: Cytotoxicity against human HepG2 cells assessed as growth inhibition after 48 hrs by Cell Titer-Glo assay; type: cell-based; details: HepG2, 48 h
[2] = Selectivity index, ratio of EC50 for human HepG2 cells to EC50 for Plasmodium falciparum 3D7 asexual blood stage infected in human erythrocytes; type: toxicity, cell-based; details: read-out: Ratio EC50
Plasmodium falciparum [3] = test: Antimalarial activity against Plasmodium falciparum NF54 harboring pfs16-LUC-GFP ring stage gametocytes after 24 hrs by MitoTracker Red staining based confocal microscopy; type: functional; details: NF54, 24 h
Plasmodium falciparum [4] = test: Antimalarial activity against Plasmodium falciparum NF54 harboring pfs16-LUC-GFP early stage 1 to 3 gametocytes after 48 hrs by MitoTracker Red staining based confocal microscopy; type: functional; details: NF54, 48 h
Plasmodium falciparum [5] = test: Antimalarial activity against Plasmodium falciparum NF54 harboring pfs16-LUC-GFP late stage 4 to 5 gametocytes after 48 hrs by MitoTracker Red staining based confocal microscopy; type: functional; details: NF54, 48 h
[6] = Intrinsic clearance in human liver microsomes at 1 uM in presence of NADPH by LC-MS method; type: ADME, microsome; details: read-out: CLH
[7] = Aqueous solubility of the compound at pH 6.5 by nephelometry; type: physicochemical
[8] = Aqueous solubility of the compound at pH 2 by nephelometry; type: physicochemical
[9] = Half life in human liver microsomes at 1 uM in presence of NADPH by LC-MS method; type: ADME, microsome
[10] = Half life in mouse liver microsomes at 1 uM in presence of NADPH by LC-MS method; type: ADME, microsome
[11] = Intrinsic clearance in mouse liver microsomes at 1 uM in presence of NADPH by LC-MS method; type: ADME, microsome; details: read-out: CLH
[12] = Hepatic extraction ratio in human liver microsomes at 1 uM in presence of NADPH by LC-MS method; type: ADME, microsome; details: read-out: ERH
[13] = Hepatic extraction ratio in mouse liver microsomes at 1 uM in presence of NADPH by LC-MS method; type: ADME, microsome; details: read-out: ERH
Plasmodium falciparum [14] = test: Antimalarial activity against chloroquine and mefloquine resistant Plasmodium falciparum W2mef infected in human erythrocytes incubated for 72 hrs by LDH assay; type: functional, cell-based

Compound: Brc1ccc(Nc2nc(NCc3ccco3)c3ccccc3n2)cc1
- EC50 (Plasmodium falciparum [1]): 0.125 µM
- EC50 (HepG2): 19 µM
- selectivity ratio [2]: 153

Compound: COC(=O)c1ccc(Nc2nc(NCc3ccco3)c3ccccc3n2)cc1
- EC50 (Plasmodium falciparum [1]): 0.574 µM
- EC50 (HepG2): 33.5 µM
- selectivity ratio [2]: 58

Compound: CC(=O)Nc1ccc(Nc2nc(NCC3CCCO3)c3ccccc3n2)cc1 (configuration not stated)
- EC50 (Plasmodium falciparum [1]): 0.274 µM
- EC50 (HepG2): 38.3 µM
- selectivity ratio [2]: 140

Compound: FC(F)(F)c1ccc(Nc2nc(NCc3ccccc3)c3ccccc3n2)cn1
- EC50 (Plasmodium falciparum [1]): 0.102 µM
- EC50 (HepG2): 8.9 µM
- selectivity ratio [2]: 87

Compound: COc1ccc2nc3cc(Cl)ccc3c(Nc3cc(CN4CCCC4)c(O)c(CN4CCCC4)c3)c2n1 [PYRONARIDINE]
- EC50 (Plasmodium falciparum [3]): 0.016 µM
- EC50 (Plasmodium falciparum [4]): 0.025 µM
- EC50 (Plasmodium falciparum [5]): 1.4 µM

Compound: CN1CCC(Nc2nc(Nc3ccc(Cl)c(F)c3)nc3cccnc23)CC1
- EC50 (Plasmodium falciparum [1]): 0.283 µM
- EC50 (HepG2): 11.1 µM
- selectivity ratio [2]: 39

Compound: Cn1ncc2c(NCc3ccccc3)nc(Nc3ccc(F)cc3)nc21
- EC50 (Plasmodium falciparum [1]): 7.6 µM
- EC50 (HepG2): 26 µM
- selectivity ratio [2]: 3

Compound: COc1ccccc1Nc1nc(NCC2CCCO2)c2ccccc2n1 (configuration not stated)
- EC50 (Plasmodium falciparum [1]): 0.526 µM
- EC50 (HepG2): 24.5 µM
- selectivity ratio [2]: 47

Compound: CNc1nc(Nc2ccc(F)cc2)nc2ccccc12
- EC50 (Plasmodium falciparum [1]): 0.136 µM
- EC50 (HepG2): 16.2 µM
- selectivity ratio [2]: 119

Compound: COc1ccc(Nc2nc(NCc3ccccc3)c3ccccc3n2)cc1
- microsomal CLint at 1 µM [6]: 27 µL/min/mg
- solubility kinetic [7]: 1.6 to 3.1 µM (≈ 0.57 to 1.1 µg/mL)
- EC50 (Plasmodium falciparum [1]): 0.264 µM
- EC50 (HepG2): 8.5 µM
- selectivity ratio [2]: 32
- solubility kinetic [8]: 25 to 50 µM (≈ 8.91 to 17.8 µg/mL)
- half-life at 1 µM [9]: 65 min
- half-life at 1 µM [10]: 14 min
- microsomal CLint at 1 µM [11]: 123 µL/min/mg
- hepatic extraction ratio at 1 µM [12]: 0.51
- hepatic extraction ratio at 1 µM [13]: 0.73

Compound: NC(=O)c1ccc(Nc2nc(NCC3CCCO3)c3ccccc3n2)cc1 (configuration not stated)
- EC50 (Plasmodium falciparum [1]): 0.691 µM
- EC50 (HepG2): 34.6 µM
- selectivity ratio [2]: 50

Compound: Fc1ccc(Nc2nc(NCc3ccco3)c3ccccc3n2)cc1
- EC50 (Plasmodium falciparum [1]): 0.112 µM
- EC50 (HepG2): 4.9 µM
- selectivity ratio [2]: 43

Compound: Fc1ccc(Nc2nc(NCc3ccccc3)c3ccccc3n2)cc1Cl
- EC50 (Plasmodium falciparum [1]): 0.056 µM
- EC50 (HepG2): 6.3 µM
- selectivity ratio [2]: 114
- EC50 (Plasmodium falciparum [14]): 0.08 µM

Compound: c1ccc2c(NCC3CCCO3)nc(Nc3ccc4c(c3)OCO4)nc2c1 (configuration not stated)
- EC50 (Plasmodium falciparum [1]): 0.169 µM
- EC50 (HepG2): 8.6 µM
- selectivity ratio [2]: 51

Compound: COc1ccc(Nc2nc(NCc3ccco3)c3ccccc3n2)cc1
- EC50 (Plasmodium falciparum [1]): 0.124 µM
- EC50 (HepG2): 2.5 µM
- selectivity ratio [2]: 20

Compound: CN(C)CCNc1nc(Nc2ccc(F)cc2)nc2ccccc12
- EC50 (Plasmodium falciparum [1]): 0.104 µM
- EC50 (HepG2): 27.9 µM
- selectivity ratio [2]: 267

Compound: CCOc1ccc(Nc2nc(NCc3ccccc3)c3ccccc3n2)cc1
- EC50 (Plasmodium falciparum [1]): 0.159 µM
- EC50 (HepG2): 4.5 µM
- selectivity ratio [2]: 29

Compound: COc1cccc(Nc2nc(NCC3CCCO3)c3ccccc3n2)c1 (configuration not stated)
- EC50 (HepG2): 7.7 µM
- selectivity ratio [2]: 33

Compound: COc1ccc(Nc2nc(NCC3CCCO3)c3ccccc3n2)c(OC)c1 (configuration not stated)
- EC50 (Plasmodium falciparum [1]): 1.1 µM
- EC50 (HepG2): 15.8 µM
- selectivity ratio [2]: 19

Compound: COc1ccc(Nc2nc(N3CCOCC3)c3ccccc3n2)cc1
- EC50 (Plasmodium falciparum [1]): 7.7 µM
- EC50 (HepG2): 25.6 µM
- selectivity ratio [2]: 3

Compound: CN1CCN(C(=O)CNc2nc(Nc3ccc(F)cc3)nc3ccccc23)CC1
- EC50 (Plasmodium falciparum [1]): 0.064 µM
- EC50 (HepG2): 30.4 µM
- selectivity ratio [2]: 473

Compound: Cc1ccc(Nc2nc(NCc3ccco3)c3ccccc3n2)cc1
- EC50 (Plasmodium falciparum [1]): 0.109 µM
- EC50 (HepG2): 5.9 µM
- selectivity ratio [2]: 54

Compound: CN1CCN(CCNc2nc(Nc3ccc(F)cc3)nc3ccccc23)CC1
- EC50 (Plasmodium falciparum [1]): 0.042 µM
- EC50 (HepG2): 15.3 µM
- selectivity ratio [2]: 362
- EC50 (Plasmodium falciparum [14]): 0.122 µM

Compound: Fc1ccccc1Nc1nc(NCC2CCCO2)c2ccccc2n1 (configuration not stated)
- EC50 (Plasmodium falciparum [1]): 0.317 µM
- EC50 (HepG2): 21.3 µM
- selectivity ratio [2]: 75

Compound: Cn1cnc2nc(Nc3ccc(F)cc3)nc(NCc3ccccc3)c21
- EC50 (Plasmodium falciparum [1]): 1.2 µM
- EC50 (HepG2): 9 µM
- selectivity ratio [2]: 7

Compound: FC(F)(F)c1ccc(Nc2nc(NCc3ccccc3)c3ccccc3n2)cc1
- EC50 (Plasmodium falciparum [1]): 0.105 µM
- EC50 (HepG2): 6.4 µM

Compound: CN1CCC(Nc2nc(Nc3ccc(F)c(Cl)c3)nc3cccnc23)CC1
- EC50 (Plasmodium falciparum [1]): 0.134 µM
- EC50 (HepG2): 11.5 µM
- selectivity ratio [2]: 86

Compound: COc1cc([C@@H]2c3cc4c(cc3[C@@H](O[C@@H]3O[C@@H]5CO[C@@H](C)O[C@H]5[C@H](O)[C@H]3O)[C@H]3COC(=O)[C@H]23)OCO4)cc(OC)c1O [ETOPOSIDE]
- EC50 (HepG2): 15.9 µM

Compound: COc1cccc(Nc2nc(NCc3ccco3)c3ccccc3n2)c1OC
- EC50 (Plasmodium falciparum [1]): 1.3 µM
- EC50 (HepG2): 20.1 µM

Compound: Fc1ccc(Nc2nc(NCc3ccccc3)c3ccccc3n2)cc1
- EC50 (Plasmodium falciparum [1]): 0.077 µM
- EC50 (HepG2): 5.1 µM
- selectivity ratio [2]: 67

Compound: Fc1ccc(Nc2nc(NCCN3CCCC3)c3ccccc3n2)cc1
- EC50 (Plasmodium falciparum [1]): 0.077 µM
- EC50 (HepG2): 26.5 µM
- selectivity ratio [2]: 343

Compound: Clc1cccc(Nc2nc(NCc3ccco3)c3ccccc3n2)c1
- EC50 (Plasmodium falciparum [1]): 0.134 µM
- EC50 (HepG2): 5 µM
- selectivity ratio [2]: 37

Compound: Fc1ccc(Nc2nc(NCCN3CCOCC3)c3ccccc3n2)cc1
- EC50 (Plasmodium falciparum [1]): 0.118 µM
- EC50 (HepG2): 30.1 µM
- selectivity ratio [2]: 256

Compound: CN1CCN(CCNc2nc(Nc3ccc(Cl)c(F)c3)nc3cccnc23)CC1
- EC50 (Plasmodium falciparum [1]): 0.128 µM
- EC50 (HepG2): 12.3 µM
- selectivity ratio [2]: 96

Compound: Fc1ccc(Nc2nc(NCc3ccccc3)c3sccc3n2)cc1
- EC50 (Plasmodium falciparum [1]): 0.866 µM
- EC50 (HepG2): 18.7 µM

Compound: NC(=O)c1ccc(Nc2nc(NCc3ccco3)c3ccccc3n2)cc1
- EC50 (Plasmodium falciparum [1]): 0.569 µM
- EC50 (HepG2): 20 µM
- selectivity ratio [2]: 35

Compound: Fc1ccc(Nc2nc(NCc3ccccc3)c3ncccc3n2)cc1
- EC50 (Plasmodium falciparum [1]): 0.057 µM
- EC50 (HepG2): 18.2 µM
- selectivity ratio [2]: 320

Compound: Fc1cc(Nc2nc(NCc3ccccc3)c3ccccc3n2)ccc1Cl
- EC50 (Plasmodium falciparum [1]): 0.121 µM
- EC50 (HepG2): 6.6 µM
- selectivity ratio [2]: 55
- EC50 (Plasmodium falciparum [14]): 0.075 µM

Compound: CC(O)c1ccc(Nc2nc(NCc3ccco3)c3ccccc3n2)cc1 (configuration not stated)
- EC50 (Plasmodium falciparum [1]): 0.702 µM
- EC50 (HepG2): 12.6 µM

Compound: CN(C)c1nc(Nc2ccc(F)cc2)nc2ccccc12
- EC50 (Plasmodium falciparum [1]): 0.418 µM
- EC50 (HepG2): 20.1 µM
- selectivity ratio [2]: 48

Compound: CN1CCC(Nc2nc(Nc3ccc(F)cc3)nc3ccccc23)CC1
- EC50 (Plasmodium falciparum [1]): 0.051 µM
- EC50 (HepG2): 11.5 µM
- selectivity ratio [2]: 227

Compound: Fc1ccc(Nc2nc(NCc3ccccc3)c3ccncc3n2)cc1
- EC50 (Plasmodium falciparum [1]): 0.539 µM
- EC50 (HepG2): 17.8 µM
- selectivity ratio [2]: 33

Compound: Clc1cc(Nc2nc(NCc3ccccc3)c3ccccc3n2)ccc1Br
- EC50 (Plasmodium falciparum [1]): 0.137 µM
- EC50 (HepG2): 2.9 µM
- selectivity ratio [2]: 40
- EC50 (Plasmodium falciparum [14]): 0.128 µM

Compound: Fc1ccc(Nc2nc(NCc3ccccc3)c3cccnc3n2)cc1
- EC50 (Plasmodium falciparum [1]): 0.636 µM
- EC50 (HepG2): 12.4 µM

Compound: Clc1ccc(Nc2nc(NCc3ccco3)c3ccccc3n2)cc1
- EC50 (HepG2): 7.4 µM
- selectivity ratio [2]: 71

Compound: CNc1nc(Nc2ccc(OC)cc2)nc2ccccc12
- EC50 (Plasmodium falciparum [1]): 0.155 µM
- EC50 (HepG2): 26.1 µM
- selectivity ratio [2]: 168

Compound: Fc1cccc(Nc2nc(NCC3CCCO3)c3ccccc3n2)c1 (configuration not stated)
- EC50 (Plasmodium falciparum [1]): 0.144 µM
- EC50 (HepG2): 8.6 µM
- selectivity ratio [2]: 39

Compound: CN1CCN(CCNc2nc(Nc3ccc(F)c(Cl)c3)nc3cccnc23)CC1
- EC50 (Plasmodium falciparum [1]): 0.11 µM
- EC50 (HepG2): 8.9 µM
- selectivity ratio [2]: 80
